ChEMBL document CHEMBL6121054, “Discovery of Metabolic Reprogramming 2-Quinolones as Effective Antimicrobials for MRSA-Infected Wound Therapy” (J Med Chem, 2025)
Active and inactive are the calls of the source. The rule behind the calls is not given here.

Assays:
[1] = system: Klebsiella pneumoniae; assay: Antibacterial activity against Klebsiella pneumoniae ATCC 43816 incubated for 16 to 24 hrs by broth microdilution method; format: functional; conditions: time 16-24 hrs
[2] = system: Staphylococcus aureus; assay: Antibacterial activity against methicillin-resistant Staphylococcus aureus infected in BALB/c mouse wound model assessed as neovascularization in skin tissue at 20 to 80 mg/kg administered topically on days 0, 3 and 6 measured for 6 to 12 days by H and E staining based analysis; format: functional, organism-based; conditions: dose 20-80 mg/kg, route top, time 6-12 day
[3] = system: Staphylococcus aureus; assay: Antibacterial activity against Staphylococcus aureus USA300 assessed as acceleration of TCA cycle measured by increase in gltA mRNA level upto 0.25 ug/ml incubated for 6 hrs by RT-PCR analysis; format: functional, organism-based; conditions: dose <= 0.25 µg/ml

Question: For `CCn1c(=O)c(C(=O)Nc2nnc(-c3ccc(C)cn3)s2)c(O)c2ccccc21`, which MIC [1] is on record?
Answer: The MIC was over 512 µg/mL.

Question: What about the Activity [2] of the same compound?
Answer: The Activity was “Active”.

Question: What about the Activity [3] of the same compound?
Answer: The Activity was “Active”.
